This is an account of results in patent US11008570B2, “3′ end caps for RNAi agents for use in RNA interference” (Novartis AG, priority 2013, dated 2021).

Series [1] concerns FVII (Factor VII), mF7-III target gene. Description: RNA interference against FVII by 3′-capped siRNAs (FIG. 2). Set-up: species or system mouse. The settings on record: 19-mer blunt-ended mF7-III siRNA, A12S17.
Series [2] deals with human HAMP (Hepcidin) gene. Description: Hepcidin mRNA down regulation by HAMP siRNA-PAZ ligand conjugates in HuH-7 cells. The class given is cell-based. The settings on record: Hepcidin RNAi agent, format S402+ribitol+MOE clamp.
Series [3] can be described thus: Serum stability of siRNAs with 3′ end caps in mouse serum. The settings on record: 100% mouse serum, 37° C., up to 24 h; compared to luciferase and dTsdT controls.
Series [4] can be described thus: Serum stability of siRNAs with 3′ end caps in human serum. The settings on record: 100% human serum, 37° C., up to 24 h; gel with SYBR gold.
For series [5], the system named is human SSB. In words: Human SSB RNAi agent, RNA interference in vitro. The class given is cell-based.

For the molecule `OCCOCCOCCO` [Triethylene glycol], in series [1], the “ability of the RNAi agent to perform RNA interference (FIG. 2)” value (shortened to “ability of the RNAi agent”) was “allow the RNAi agent to perform RNA interference”.

Turning to `c1ccc(-c2ccccc2)cc1` [BP (biphenyl), biphenyl], the “Hepcidin KD at 5 nM in vitro (%)” value in series [2] is given as 68%. Regarding `C1C2CC3CC1CC(C2)C3` [Adamantane], in series [1], the “ability of the RNAi agent” value is reported as “allow the RNAi agent to perform RNA interference”. For the molecule `c1ccc(-c2ccccc2)cc1` [Biphenyl], in series [3], the “stability in mouse serum” value was “increased stability”. Moreover, in series [4], the “stability in human serum” value is on record as “increased stability”. For the same molecule, the “ability of the RNAi agent” value in series [1] is given as “allow the RNAi agent to perform RNA interference”. Regarding “hs_SSB_309_AS_18mer-C3-C6: "human SSB RNAi agent"; "AS: UuAcAUuAAAGUCUGU87-C3pC6", "S: cAAcAGAcuuuAAuGu55-C3pC6" (SEQ ID NO: 90, 91) (chain 1 UUACAUUAAAGUCUGUTG; chain 2 CAACAGACUUUAAUGUAA; C3pC6 3' end caps on both strands, further chemistry not given here)”, in series [5], the “RNA interference in vitro” value is “effective at mediating RNA interference in vitro”.
